{"source": "patent US20260305620A1", "about": "“NOVEL INSECTICIDAL MIXTURES FOR CONTROLLING AND PROTECTING CROPS” (ADAMA MAKHTESHIM LTD., priority 2023, published 2026)", "tested_on": "Aphis gossypii", "test": "Mortality of Aphis gossypii adults + progeny on sprayed pepper leaf disks; synergy/antagonism of garlic extract mixtures by Colby's formula", "format": "in vivo, Aphis gossypii (cotton aphid)", "details": "for mortality at 0.2 ppm: 0.2 ppm ai; for mortality at 0.1 ppm: 0.1 ppm ai; for mortality at 0.8 ppm: read-out: Mortality Observed, alone, 0.8 ppm ai; for mortality at 5 ppm: read-out: Mortality Observed, alone, 5 ppm ai", "experimental": "Evaluating the synergistic or antagonistic effects of garlic extract and other insecticides on Aphis gossypii in pepper crop.\nPepper plants of Makko F1 cv, obtained from seeds, were grown at totally controlled conditions in a growing chamber. Healthy and untreated Pepper plants were used at least two months after seeding to get leaf disks suitable to be exposed to Aphis gossypii adults.\nThe aphids' adults were obtained from mass rearing; aphids were reared on cucumber and zucchini plants under controlled environmental conditions.\nSuitable leaves were collected from pepper plants. Leaf disks were prepared together with arenas containing a layer of water agar on the base. 8 leaf disks per treatment were obtained from the collected leaves and 20 adults/arena were inoculated.\nEach arena was sprayed, using an electric low pressure hand sprayer, with the corresponding insecticide mixture. Tween 80 surfactant, at the rate of 0.05% was added in each treatment mixture.\nThe untreated check was sprayed with distilled water together with Tween 80 surfactant at a dose of 0.05%.\nThe experimental arenas were kept in a growth chamber under controlled climatic conditions: 21° C. (±0.5), 60% RH and 16:8 light:dark photoperiod regime. The assessment of mortality (as % of died adults+progeny) was performed according to the characteristics of each Active Ingredient.\nGarlic extract a) and the additional pesticide b) were priorly calibrated to obtain the Dose Response Curve and the Lethal Dose (ppm) values; according to the calibrations the mixing protocols were obtained at the proper mixing ratios.\nAll the statistical procedures [Student-Newman-Keuls (SNK), Dose response analysis (Probit, confidence level 95%) Anova and other calculation analysis] were performed using the ARM 2020.0 software.\nThe evaluation of Synergy or Antagonism of the two active ingredients was performed by using the Colby's formula, above described: […]\nin which E represents the expected percentage of insecticidal control for the combination of the two insecticides at defined doses, A is the percentage of insecticidal control observed by the compound (I) at a defined dose (for example, a), B is the percentage of insecticidal control observed by the compound (II) at a defined dose (for example, b). When the ratio between the observed percentage of insecticidal control for the combination of the two insecticides at defined doses and the expected percentage of insecticidal control for the combination of the two insecticides at defined doses is greater than 1.15, the effect is synergistic.", "key": {"[1]": {"details": "Aphis gossypii, foliar, alone, read-out: Mortality Observed"}, "[2]": {"details": "Aphis gossypii, foliar, read-out: Mortality Observed, alone, 1 ppm ai"}, "[3]": {"details": "Aphis gossypii, foliar, alone, 1 ppm ai, read-out: Mortality Observed"}, "[4]": {"details": "Aphis gossypii, foliar, alone, 2 ppm ai, read-out: Mortality Observed"}}, "note": "Read-outs that look alike come from different tables or passages of the source."}
{"compound": "CC1(C)[C@H](C(=O)O[C@H](C#N)c2cccc(Oc3ccccc3)c2)[C@@H]1/C=C(\\Cl)C(F)(F)F", "note": "(racemic) [Lambda cyhalothrin, lambda-cyhalothrin]", "values": [{"measurement": "mortality at 0.2 ppm", "setting": "[1]", "value": 32.1, "unit": "%"}, {"measurement": "mortality at 0.4 ppm", "setting": "Aphis gossypii, foliar, alone, 0.4 ppm ai, read-out: Mortality Observed", "value": 37.6, "unit": "%"}]}
{"compound": "C/C(=N\\C#N)N(C)Cc1ccc(Cl)nc1", "note": "[Acetamiprid, acetamiprid]", "values": [{"measurement": "mortality at 0.01 ppm", "setting": "Aphis gossypii, foliar, alone, 0.01 ppm ai, read-out: Mortality Observed", "value": 48.9, "unit": "%"}, {"measurement": "mortality at 0.05 ppm", "setting": "Aphis gossypii, foliar, alone, 0.05 ppm ai, read-out: Mortality Observed", "value": 25, "unit": "%"}, {"measurement": "mortality at 0.1 ppm", "setting": "[1]", "value": 48.9, "unit": "%"}]}
{"compound": "C[C@]1(COC(=O)C2CC2)[C@@H]2C[C@H](O)[C@@]3(C)Oc4cc(-c5cccnc5)oc(=O)c4[C@H](O)[C@@H]3[C@@]2(C)CC[C@@H]1OC(=O)C1CC1", "note": "[Afidopyropen, afidopyropen]", "values": [{"measurement": "mortality at 0.02 ppm", "setting": "Aphis gossypii, foliar, read-out: Mortality Observed, alone, 0.02 ppm ai", "value": 25.3, "unit": "%"}, {"measurement": "mortality at 1 ppm", "setting": "[2]", "value": 37.3, "unit": "%"}, {"measurement": "mortality at 2 ppm", "setting": "Aphis gossypii, foliar, read-out: Mortality Observed, alone, 2 ppm ai", "value": 49.4, "unit": "%"}]}
{"compound": "C/C=C(\\C)C(=O)O[C@H]1C[C@@H](OC(C)=O)[C@@]2(C(=O)OC)CO[C@H]3[C@@H](O)[C@@](C)([C@]45O[C@@]4(C)[C@H]4C[C@@H]5O[C@@H]5OC=C[C@@]54O)[C@H]4[C@]1(CO[C@]4(O)C(=O)OC)[C@@H]32", "note": "[Azadirachtin, azadirachtin]", "values": [{"measurement": "mortality at 1 ppm", "setting": "[3]", "value": 22.7, "unit": "%"}, {"measurement": "mortality at 2 ppm", "setting": "[4]", "value": 28.9, "unit": "%"}]}
{"compound": "FC(F)(F)c1ccc(COc2ncncc2C2OCCCO2)cc1", "note": "[Benzpyrimoxan, benzpyrimoxan]", "values": [{"measurement": "mortality at 0.8 ppm", "setting": "Aphis gossypii, foliar", "value": 8.2, "unit": "%"}, {"measurement": "mortality at 5 ppm", "setting": "Aphis gossypii, foliar", "value": 42, "unit": "%"}]}
{"compound": "CC(C)c1cc(Oc2ccccc2)cc(C(C)C)c1NC(=S)NC(C)(C)C", "note": "[Diafenthiuron, diafenthiuron]", "values": [{"measurement": "mortality at 1 ppm", "setting": "[2]", "value": 22.7, "unit": "%"}, {"measurement": "mortality at 5 ppm", "setting": "Aphis gossypii, foliar", "value": 26, "unit": "%"}, {"measurement": "Mortality Observed", "setting": "alone, 5 ppm ai", "value": 26.22, "unit": "%"}]}
{"compound": "N#Cc1nn(-c2c(Cl)cc(C(F)(F)F)cc2Cl)c(N)c1[S+]([O-])C(F)(F)F", "note": "(stereo not shown) [Fipronil, fipronil]", "values": [{"measurement": "mortality at 0.1 ppm", "setting": "[1]", "value": 35, "unit": "%"}, {"measurement": "mortality at 0.5 ppm", "setting": "Aphis gossypii, foliar, alone, 0.5 ppm ai, read-out: Mortality Observed", "value": 43.2, "unit": "%"}]}
{"compound": "N#CCNC(=O)c1cnccc1C(F)(F)F", "note": "[Flonicamid, flonicamid]", "values": [{"measurement": "Mortality Observed", "setting": "alone, 1 ppm ai", "value": 31.4, "unit": "%"}, {"measurement": "Mortality Observed", "setting": "alone, 2 ppm ai", "value": 27.2, "unit": "%"}]}
{"compound": "CC(=O)N1C(=O)N(NCc2cccnc2)Cc2cc(C(F)(C(F)(F)F)C(F)(F)F)ccc21", "note": "[Pyrifluquinazon, pyrifluquinazon]", "values": [{"measurement": "mortality at 0.08 ppm", "setting": "Aphis gossypii, foliar, read-out: Mortality Observed, alone, 0.08 ppm ai", "value": 24.9, "unit": "%"}, {"measurement": "mortality at 0.5 ppm", "setting": "Aphis gossypii, foliar, read-out: Mortality Observed, alone, 0.5 ppm ai", "value": 42.7, "unit": "%"}, {"measurement": "mortality at 0.8 ppm", "setting": "Aphis gossypii, foliar", "value": 47.6, "unit": "%"}]}
{"compound": "CCOC(=O)OC1=C(c2cc(C)ccc2C)C(=O)N[C@]12CC[C@@H](OC)CC2", "note": "[Spirotetramat, spirotetramat]", "values": [{"measurement": "mortality at 1 ppm", "setting": "[3]", "value": 23.5, "unit": "%"}, {"measurement": "mortality at 2 ppm", "setting": "[4]", "value": 44.4, "unit": "%"}]}
{"compound": "CC(C)[C@@H](Nc1ccc(C(F)(F)F)cc1Cl)C(=O)OC(C#N)c1cccc(Oc2ccccc2)c1", "note": "(stereo partly shown) [Tau fluvalinate, tau-fluvalinate]", "values": [{"measurement": "mortality at 0.1 ppm", "setting": "[1]", "value": 28.1, "unit": "%"}, {"measurement": "mortality at 0.2 ppm", "setting": "[1]", "value": 47.9, "unit": "%"}]}
{"compound": "CCc1nn(C)c(C(=O)NCc2ccc(Oc3ccc(C)cc3)cc2)c1Cl", "note": "[Tolfenpyrad, tolfenpyrad]", "values": [{"measurement": "mortality at 0.2 ppm", "setting": "[1]", "value": 15.9, "unit": "%"}, {"measurement": "mortality at 1 ppm", "setting": "[3]", "value": 39.3, "unit": "%"}]}
